Results as given in patent publication EP4019017A1, “COMPOSITION COMPRISING MELATONIN, PIPERINE AND VITAMIN D, CONTROLLED-RELEASE FORMULATION AND USE THEREOF FOR THE TREATMENT OF SLEEP DISORDERS” (Uriach Consumer Healthcare, S.L., priority 2020, dated 2022).
Where two headings read alike, the source gives them in different places.

Columns and labels:
[1] = tested on: Intestinal cells (Caco-2); test: Intestinal cells - cell viability; format: cell-based; set-up: unit not given here
Description: For this purpose, intestinal barrier model (transwell, patented model from Novara University, Italy) is used to determine the rate of passage and therefore to estimate a better pass-effect of melatonin in combination with piperine and vitamin D than melatonin alone. In this phase, vitality will also be assessed in the presence of the treatments alone and in combination with melatonin, in addition to melatonin alone. […] A time-dependent trend can be observed for all tested substances. In addition, substances other than melatonin have an efficacy that resolves within 2-4 hours of treatment.

[2] = tested on: Intestinal cells (Caco-2); test: Intestinal absorption rate, intestinal barrier model (transwell), fluorescent tracer; format: in vitro ADME
Description: For this purpose, intestinal barrier model (transwell, patented model from Novara University, Italy) is used to determine the rate of passage and therefore to estimate a better pass-effect of melatonin in combination with piperine and vitamin D than melatonin alone. In this phase, vitality will also be assessed in the presence of the treatments alone and in combination with melatonin, in addition to melatonin alone. […] 3.1.b. Intestinal absorption: to determine speed based on the fluorescent tracer, the percentage velocity calculated with respect to the control.

[3] = cited from earlier work
[4] = Time 1 h, Melatonin 1mM, Piperine 5µM, Vitamin D3 1nM, Vitamin B6 500µM

SMILES | Cell viability, Average [1, 4] | Cell viability, Average ([1]; Time 2 h) | Cell viability, Average ([1]; Time 3 h) | Cell viability, Average ([1]; Time 4 h) | Cell viability, Average ([1]; Time 5 h) | Cell viability, Average ([1]; Time 6 h) | Speed (percentage velocity calculated with respect to the control) ([2]; Time 2 h) [%] | Speed (percentage velocity calculated with respect to the control) ([2]; Time 3 h) [%] | Speed (percentage velocity calculated with respect to the control) ([2]; Time 4 h) [%] | Speed (percentage velocity calculated with respect to the control) ([2]; Time 5 h) [%] | Speed (percentage velocity calculated with respect to the control) ([2]; Time 6 h) [%] | Speed (percentage velocity calculated with respect to the control) ([2]; time 1 h) [%] | Speed (percentage velocity calculated with respect to the control) ([2]; time point printed as 30) [%] | solubility ([3]; in alcohol) | solubility ([3]; in water)
COc1ccc2[nH]cc(CCNC(C)=O)c2c1 [Melatonin, N-[2-(5-Methoxy-1H-indol-3-yl)ethyl]acetamide] | 13.375 | 10.905 | 7.57 | 6.965 | 2.57 | 1.005 | – | – | – | – | – | – | – | – | –
C=C1CC[C@H](O)C/C1=C/C=C1\CCC[C@]2(C)[C@@H]([C@H](C)CCCC(C)C)CC[C@@H]12 [Vitamin D3] | 6.91 | 14.185 | 18.32 | 16.325 | 9.315 | 0.78 | 15.00 | 19.00 | 17.00 | 13.00 | 10.00 | 10.00 | 8.00 | – | –
O=C(/C=C/C=C/c1ccc2c(c1)OCO2)N1CCCCC1 [Piperine, (2E,4E)-5-(2H-1,3-Benzodioxol-5-yl)-1-(piperidin-1-yl)penta-2,4-dien-1-one] | 6.37 | 30.25 | 21.625 | 14.125 | 12.32 | 6.74 | – | – | – | – | – | – | – | soluble | insoluble
Cc1ncc(CO)c(CO)c1O.Cl [Vitamin B6, Pyridoxine HCI] | 11.985 | 5.215 | 5.965 | 9.105 | 3.565 | 4.8 | – | – | – | – | – | – | – | – | –
